Measured values from patent publication US12435083B2, “Cyclopropyl-(hetero)aryl-substituted ethylsulphonyl-pyridine derivatives” (BOEHRINGER INGELHEIM VETMEDICA GMBH, priority 2021, dated 2025).
Where two headings read alike, the source gives them in different places.

Experiments:
Plutella xylostella = assay: Insecticidal test on Plutella xylostella (Chinese cabbage seedling dip); details: 144 h, read-out: activity level (corrected mortality rate), Plutella xylostella
Description: Example 12: Insecticidal Test on Plutella xylostella
(§1) The compounds of formula (I) of the present invention or salts thereof were separately dispersed in water and diluted to 500 ppm. Ten adults of Plutella xylostella were released onto Chinese cabbage seedlings and allowed to lay eggs thereon. 2 days after the release of the adults, the seedling was dipped in the dispersion for about 30 seconds. After air dried, the seedling was kept in a room at 25° C. 6 days after the dip treatment, the numbers of the dead and alive insects were counted. The corrected mortality rate was calculated according to the following formula and the insecticidal activity was evaluated according to the following criteria. Corrected mortality rate (%)=100×(Survival rate in an untreated plot−Survival rate in a treated plot)/Survival rate in an untreated plot • A: the corrected mortality rate is 100% • B: the corrected mortality rate is 90 to 99% • C: the corrected mortality rate is 80 to 89% • D: the corrected mortality rate is 50 to 79%

[1] = system: adult Ctenocephalides felis fleas; assay: Contact activity against adult Ctenocephalides felis (treated surface, motility by machine vision, 24 h); details: read-out: EC80 (% motility reduction, adult C. felis, contact)
Description: Example 7: Screening Method to Test Contact Activity of Compounds of Formula (I) Against Adult Ctenocephalides felis

Aedes aegypti L1 larvae = assay: Activity against larvae of Aedes aegypti (L1 larvae, 384-well, image-based mortality); details: 48 h at 27° C., 384-well, read-out: EC50 (percentage of mortality, A. aegypti L1 larvae)
Description: Example 3: Screening Method to Test Activity of Compounds of Formula (I) Against Larvae of Aedes aegypti
Eight A. aegypti L1 larvae in a total volume of 64 μL water were added to 384-well microplates containing compounds formulated in 100% DMSO. The plates were incubated for 48 h at 27° C. Individual well images were acquired and analyzed using a pipeline to quantitatively assess the amount of larvae biomass accumulating at the bottom of the well. The efficacy of a compound at a given dose is expressed as “percentage of mortality” and determined by comparison to average biomass descriptors of positive and negative control wells containing 1.0 μM Fipronil or DMSO only, respectively. Dose response assay were conducted to determine an EC50 value.

Myzus persicae = assay: Insecticidal test on Myzus persicae (foliar application on potted Chinese cabbage); details: 144 h, 500 ppm, foliar application, 6 days after application, read-out: control efficacy level (control rate), Myzus persicae
Description: Example 14: Insecticidal Test on Myzus persicae
The compounds of formula (I) of the present invention or salts thereof were separately dispersed in water and diluted to 500 ppm. Chinese cabbage plants were planted in plastic pots (diameter: 8 cm, height: 8 cm). Aphids (Myzus persicae) were propagated on the plants and then the number of surviving aphids was counted. The dispersion was applied to the foliage of the potted plants. After the plants were air dried, these were kept in a greenhouse. 6 days after the application, the number of the alive insects was counted on the plants. The control rate was calculated according to the following formula and the control efficacy was evaluated according to the following criteria. Control rate (%)=100−{(T×Ca)/(Ta×C)}×100 • Ta: the number of alive insects before the foliar application in a treated plot • T: the number of alive insects after the foliar application in a treated plot • Ca: the number of alive insects before the foliar application in an untreated plot • C: the number of alive insects after the foliar application in an untreated plot • A: the control rate is 100% • B: the control rate is 90 to 99% • C: the control rate is 80 to 89% • D: the control rate is 50 to 79%

[2] = system: Laodelphax striatellus 3rd-instar nymphs; assay: Insecticidal test on Laodelphax striatellus (rice seedling dip); details: 192 h, read-out: activity level (corrected mortality rate), Laodelphax striatellus
Description: Example 13: Insecticidal Test on Laodelphax striatellus
as §1, with “Rice plant seedlings” for “Ten adults of Plutella xylostella”, “were” for “were released onto Chinese cabbage seedlings and allowed to lay eggs thereon. 2 days after the release of the adults, the seedling was”, “seedlings were put into a separate glass test tube and inoculated with ten 3rd-instar nymphs of Laodelphax striatellus and then the glass test tube” for “seedling”, “8” for “6”, “inoculation,” for “dip treatment,”

[3] = system: adult Rhipicephalus sanguineus ticks; assay: Contact activity against adult Rhipicephalus sanguineus (coated vial, mortality at 48 h); details: Rhipicephalus sanguineus
Description: Example 5: Screening Method to Test Contact Activity of Compounds of Formula (I) Against Adult Rhipicephalus sanguineus
Compounds of formula (I) formulated in 100% DMSO were diluted in a solution containing acetone and Triton X-100 (0.02%). The resulting formulation was used to coat the inner walls of glass scintillation vials and the filter paper covering the cap of the vial. Once dried, ten adult R. sanguineus ticks were added to the vials. The vials were incubated at 24° C., 95% relative humidity, and 12 hours of light/12 hours of dark until evaluation. Ticks were visually evaluated for mortality at 48 hours post-treatment. Compound efficacy at a given dose is expressed as percentage mortality. A dose response series was implemented to determine EC50 values.
(§2) The four structurally closest prior art compounds (A), (B), (C) and (D) specifically excluded from the scope of formula (I) were characterized vis-a-vis selected compounds of formula (I) with regard to their potency in in vitro screening assays against fleas (Ctenocehalides felis) and ticks (Rhipicephalus sanguineus).
(§3) However, as explained above, spectrum of action against this range of species (i.e. fleas and ticks) is a desirable property of ectoparasiticides for veterinary use. In the following table 1 comparative experimental data of the in vitro assays are shown regarding flea membrane feeding (ingestion, blood feeding) activity against Ctenocephalides felis and contact activity against Rhipicephalus sanguineus.

[4] = system: adult Ctenocephalides felis fleas; assay: Ingestion activity (flea membrane feeding, blood feeding) against adult Ctenocephalides felis; details: Ctenocephalides felis
Description: Example 6: Screening Method to Test Ingestion Activity of Compounds of Formula (I) Against Adult Ctenocephalides felis
as §2
It is important to note that compounds that show better activity versus ticks are more desirable in the animal health field, as ticks are more difficult to control than fleas. Noteworthy, in particular with regard to fleas the illustrated comparative data are based on a flea membrane feeding (ingestion, blood feeding) assay. Data from this assay are more relevant for compounds intended to be delivered systemically to an animal via oral or injectable routes. Membrane feeding assays differ to primary screening laboratory contact assays in that the latter only measure the effect of the direct contact of selected compounds on the parasite, such as the flea or the tick. The information derived from laboratory contact assays is strictly limited to the ability of the compound to be absorbed through the parasite surface and to reach its molecular target, and no information can be gleaned from these contact assays as to whether the compound would also be active when presented orally to the ectoparasite itself in a blood meal, such as with the membrane feeding assay, and certainly not when administered orally to an animal host (e.g. “in vivo”) with subsequent exposure to the ectoparasite.
as §3

[5] = 500 ppm, seedling dip, 6 days after dip treatment
[6] = 500 ppm, seedling dip, 8 days after inoculation
[7] = 48 hours post-treatment, coated vial, read-out: EC50 (percentage mortality, adult R. sanguineus, contact)
[8] = bovine blood, 24h post treatment, read-out: EC80 (% motility reduction, adult C. felis, ingestion via membrane feeding)

SMILES	mortality at 500 ppm (Plutella xylostella; [5])	EC80 ([1]; treated surface, 24h)	pest or weed control at 500 ppm (Myzus persicae)	mortality at 500 ppm [2, 6]	other results
CCn1cc(C(F)(F)F)cc2nc(-c3ncc(-c4ccc(C5CC5)cc4)cc3S(=O)(=O)CC)cc1-2 [Compound 6, 5-(4-cyclopropylphenyl)-3-(ethanesulfonyl)-2-[4-ethyl-6-(trifluoromethyl)pyrrolo[3,2-b]pyridine-2-yl]pyridine]	100%	1 to 10 µM	–	–	–
CCS(=O)(=O)c1cc(-c2ccc(C3CC3)cc2)cnc1-n1cc2cnc([S+]([O-])C(F)(F)F)cc2n1 (centres unmarked) [Compound 29, 5-(4-cyclopropylphenyl)-3-(ethanesulfonyl)-2-[6-trifluoromethanesulfinylpyrazolo[4,3-c]pyridin-2-yl]pyridine]	–	1 to 10 µM	–	–	EC50 (Aedes aegypti L1 larvae): < 0.04 µM
CCS(=O)(=O)c1cc(-c2ccc(C3CC3)cc2)cnc1-c1nc2cc(C(F)(F)F)cnc2o1 [Compound 40, 5-(4-cyclopropylphenyl)-3-(ethanesulfonyl)-2-[6-(trifluoromethyl)-[1,3]oxazolo[5,4-b]pyridin-2-yl]pyridine]	100%	1 to 10 µM	–	–	–
CCS(=O)(=O)c1cc(-c2ccc(C3CC3)cc2)cnc1-c1nc(-c2cc(C(F)(F)F)ccn2)cn1C [Compound 55, 5-(4-cyclopropylphenyl)-3-(ethanesulfonyl)-2-[1-methyl-4-[4-(trifluoromethyl)pyridin-2-yl]imidazol-2-yl]pyridine]	100%	–	100%	100%	–
CCS(=O)(=O)c1cc(-c2cncc(C3CC3)c2)cnc1-c1nc2cc(C(F)(F)C(F)(F)F)nnc2n1C [Compound 61, 5′-cyclopropyl-5-(ethanesulfonyl)-6-[7-methyl-3-(1,1,2,2,2-pentafluoroethyl)imidazo[4,5-c]pyridazin-6-yl]-3,3′-bipyridine]	–	–	–	–	EC50 (Aedes aegypti L1 larvae): 0.04 to 0.05 µM; EC50 [3, 7]: 10 to 100 µM
CCn1cc(C(F)(F)F)cc2nc(-c3ncc(-c4ncc(C5CC5)cn4)cc3S(=O)(=O)CC)cc1-2 [Compound 92, 5-cyclopropyl-2-[5-(ethanesulfonyl)-6-[4-ethyl-6-(trifluoromethyl)pyrrolo[3,2-b]pyridin-2-yl]pyridin-3-yl]pyrimidine]	100%	1 to 10 µM	100%	–	–
CCS(=O)(=O)c1cc(-c2cnc(C3CC3)nc2)cnc1-c1nc2cc(C(F)(F)C(F)(F)F)nnc2n1C [Compound 93, 2-cyclopropyl-5-[5-(ethanesulfonyl)-6-[7-methyl-3-(1,1,2,2,2-pentafluoroethyl)imidazo[4,5-c]pyridazin-6-yl]pyridin-3-yl]pyrimidine]	–	< 1 µM	–	–	EC80 [4, 8]: 1 to 10 µM
CCS(=O)(=O)c1cc(-c2ccc(C3CC3)cc2)cnc1-c1cc2n(C(C)C)cc(C(F)(F)F)cc-2n1 [Compound 100, 5-(4-cyclopropylphenyl)-3-(ethanesulfonyl)-2-[4-isopropyl-6-(trifluoromethyl)pyrrolo[3,2-b]pyridin-2yl]pyridine]	–	–	–	–	mortality at 500 ppm (Plutella xylostella): 100%; mortality at 500 ppm [2]: 100%; EC80 ([1]; 24 h): 1 to 10 µM; EC50 ([3]; 48 h, read-out: EC50 (percentage mortality, adult R. sanguineus, contact)): < 10 µM
CCS(=O)(=O)c1cc(-c2ccc(C3CC3)cc2)cnc1-c1ccc(OCC(F)(F)C(F)(F)F)nn1 [Compound 126, 3-[5-(4-cyclopropylphenyl)-3-(ethanesulfonyl)pyridin-2-yl]-6-(2,2,3,3,3-pentafluoropropoxy)pyridazine]	100%	–	100%	100%	EC50 [3, 7]: < 10 µM
CCS(=O)(=O)c1cc(-c2cnnc(C3CC3)c2)cnc1-c1nc2cc(C(F)(F)C(F)(F)F)cnc2n1C [Compound 195, 3-cyclopropyl-5-[5-(ethanesulfonyl)-6-[3-methyl-6-(1,1,2,2,2-pentafluoroethyl)imidazo[4,5-b]pyridin-2-yl]pyridin-3-yl]pyridazine]	100%	–	–	100%	EC80 [4, 8]: < 1 µM
CCS(=O)(=O)c1cc(-c2ccc(C3(C(F)(F)F)CC3)cc2)cnc1-c1nc2cc(C(F)(F)C(F)(F)F)ncc2n1C [compound 116]	–	–	–	–	EC50 (Aedes aegypti L1 larvae): < 0.04 µM
CCn1c(=O)c(C(F)(F)F)cc2nc(-c3ncc(-c4ccc(C5CC5)cc4)cc3S(=O)(=O)CC)n(C)c21 [compound 125]	–	1 to 10 µM	100%	–	–
CCS(=O)(=O)c1cc(-c2ccc(C3CC3(F)F)cc2)cnc1-c1nc2cc(C(F)(F)C(F)(F)F)cnc2n1C (centres unmarked) [compound 134]	100%	1 to 10 µM	100%	100%	EC80 ([4]; 24 h, flea membrane feeding (ingestion, blood feeding) assay, EC80, read-out: C. felis membrane feeding (ingestion/blood feeding) activity EC80): 1 to 10 µM; EC80 [4, 8]: 1 to 10 µM; EC50 [3, 7]: 10 to 100 µM; EC50 ([3]; contact assay, >100 μM = not active at the top concentration, read-out: R. sanguineus contact activity EC50): 10 to 100 µM
CCS(=O)(=O)c1cc(-c2cccnc2C2CC2)cnc1-c1nc2cc(C(F)(F)C(F)(F)F)nnc2n1C [compound 138]	100%	< 1 µM	100%	100%	EC80 [4, 8]: < 1 µM
CCS(=O)(=O)c1cc(-c2ccc(C3(C)CC3)cc2)cnc1-c1nc2cc(C(F)(F)C(F)(F)F)nnc2n1C [compound 154]	100%	1 to 10 µM	100%	–	EC50 [3, 7]: 10 to 100 µM
